The compounds below were run on neurons induced to differentiate from SCN1A gene deficient human iPS cells (assay: Test for measuring hyperexcitation suppression activity (spontaneous calcium oscillation frequency)). Conditions: Homo sapiens, Neuron; @0.1 μM; read-out: inhibition rate.
Format: cell-based
From the text: Test for Measuring Hyperexcitation Suppression Activity Using Neurons Induced to Differentiate from SCN1A Gene Deficient Human iPS Cells
(1) Induction of Differentiation from Human iPS cells to Neurons
Half of the culture solution was exchanged once every 3 to 4 days.
(2) Fluorescent Calcium Probe Treatment, Addition of Compound, and Evaluation of Intracellular Calcium Concentration
Half of the culture solution was removed on day 60 from induction of differentiation or thereafter. A medium for measurement comprising a fluorescent calcium probe (Molecular Device, product name: FLIPR Calcium 6 Assay Bulk Kit, cat #R8191) was added at an amount equal to the remaining medium. The culture was left standing for 30 minutes and subjected to measurement.
The test compounds were serially diluted with a dimethyl sulfoxide (DMSO) solution so that the final concentration would be 0.1 to 100 μM to prepare a concentrate with a concentration that is 6-fold of the final concentration.
The intensity of fluorescence of a calcium probe was measured over time with FDSS7000EX (Hamamatsu Photonics) to evaluate the change in intracellular calcium concentrations. First, the intensity of fluorescence was measured for 2 minutes. The compound solutions were then added using FDSS7000EX for an additional 8 minute measurement of fluorescence intensity. The frequency of spontaneous calcium oscillation was quantified as an indicator of nerve excitation. With the frequency for 2 minutes before the addition of the compound solutions as 100%, the ratio of frequency for the last 2 minutes after addition of the compound solutions was calculated.

Row | SMILES | inhibition at 0.1 µM
1 | Cc1ccc(F)cc1-n1c(Nc2cccnc2)nc2ccc(C#N)cc2c1=O [Example 104, 3-(5-fluoro-2-methylphenyl)-4-oxo-2-(pyridin-3-ylamino)-3,4-dihydroquinazoline-6-carbonitrile] | 29%
2 | Cc1cccc(-n2c(Nc3cccnc3)nc3ccc(F)cc3c2=O)c1 [Example 106] | 17%
3 | Cc1ccccc1-n1c(Nc2cccnc2)nc2ccc(F)cc2c1=O [Example 107, 6-fluoro-2-(pyridin-3-ylamino)-3-(o-tolyl)quinazolin-4(3H)-one] | 89%
4 | O=c1c2cc(F)ccc2nc(Nc2cccnc2)n1-c1ccccc1F [Example 108, 6-fluoro-3-(2-fluorophenyl)-2-(pyridin-3-ylamino)quinazolin-4(3H)-one] | 62%
5 | O=c1c2cc(F)ccc2nc(Nc2cncc(F)c2)n1-c1ccccc1F [Example 111, 6-fluoro-3-(2-fluorophenyl)-2-((5-fluoropyridin-3-yl)amino)quinazolin-4(3H)-one] | 35%
6 | N#Cc1ccc2nc(Nc3cncc(F)c3)n(-c3ccccc3)c(=O)c2c1 [Example 112, 2-((5-fluoropyridin-3-yl)amino)-4-oxo-3-phenyl-3,4-dihydroquinazoline-6-carbonitrile] | 32%

Same assay, conditions: Homo sapiens, Neuron; @1 μM; read-out: inhibition rate

Row | SMILES | inhibition at 1 µM
7 | CN1[C@@H]2CC[C@H]1C[C@@H](n1c(Nc3cccnc3)nc3ccccc3c1=O)C2 [Example 79] | 47%
8 | C[C@]1(N)CC[C@@H](n2c(Nc3cccnc3)nc3ccc(F)cc3c2=O)CC1 [Example 89] | 20%
9 | O=c1c2ccccc2nc(Nc2ccc3cnoc3c2)n1-c1ccccc1 [Example 94] | 27%
10 | O=c1c2ccccc2nc(Nc2ccc3ncoc3c2)n1-c1ccccc1 [Example 98] | 51%
11 | Cc1ccc(-n2c(Nc3cccnc3)nc3ccc(C#N)cc3c2=O)c(Cl)c1 [Example 103] | 84%
12 | Cc1ccc(-n2c(Nc3cccnc3)nc3ccc(F)cc3c2=O)cc1 [Example 105, 6-fluoro-2-(pyridin-3-ylamino)-3-(p-tolyl)quinazolin-4(3H)-one] | 100%
13 | N#Cc1ccc2nc(Nc3cccnc3)n(-c3ccccc3F)c(=O)c2c1 [Example 110] | 66%
14 | N#Cc1ccc2nc(Nc3cncc(F)c3)n(-c3ccccc3F)c(=O)c2c1 [Example 113, 3-(2-fluorophenyl)-2-((5-fluoropyridin-3-yl)amino)-4-oxo-3,4-dihydroquinazoline-6-carbonitrile] | 91%
15 | O=c1c2cccc(F)c2nc(Nc2cccnc2)n1-c1ccccc1 [Example 115] | 81%
16 | O=c1c2ccccc2nc(Nc2cccnc2)n1C12CCN(CC1)CC2 [Example 119] | 20%
17 | Cc1ccccc1-n1c(Nc2cccnc2)nc2cccc(F)c2c1=O [Example 120] | 69%
18 | Cc1ccccc1-n1c(Nc2cccnc2)nc2cc(F)ccc2c1=O [Example 121] | 28%
19 | Cc1ccccc1-n1c(Nc2cccnc2)nc2c(F)cccc2c1=O [Example 122] | 61%
20 | O=c1c2cc(F)ccc2nc(Nc2cccnc2)n1-c1cccc(F)c1 [Example 123] | 56%
21 | O=c1c2cc(F)ccc2nc(Nc2cccnc2)n1-c1ccc(F)cc1 [Example 124] | 32%
22 | Cc1ccnc(Nc2nc3ccc(F)cc3c(=O)n2-c2ccccc2)c1 [Example 125] | 29%
23 | O=c1c2cc(F)ccc2nc(Nc2cc(F)ccn2)n1-c1ccccc1 [Example 127, 6-fluoro-2-((4-fluoropyridin-2-yl)amino)-3-phenylquinazolin-4(3H)-one] | 96%
24 | O=c1c2cc(F)ccc2nc(Nc2ccc(F)cn2)n1-c1ccccc1 [Example 128] | 69%
25 | O=c1c2cc(F)ccc2nc(Nc2cccc(F)n2)n1-c1ccccc1 [Example 129] | 50%
26 | COc1cccc(Nc2nc3ccc(F)cc3c(=O)n2-c2ccccc2)n1 [Example 130] | 44%
27 | Cc1cnccc1Nc1nc2ccc(F)cc2c(=O)n1-c1ccccc1 [Example 132] | 38%
28 | COc1cccc(-n2c(Nc3cccnc3)nc3ccc(F)cc3c2=O)c1 [Example 133] | 51%
29 | O=c1c2cc(F)ccc2nc(Nc2cccnc2)n1-c1cccc(Cl)c1 [Example 134] | 56%
30 | O=c1c2cc(F)ccc2nc(Nc2cccnc2)n1-c1ccc(Cl)cc1 [Example 135] | 24%

Same assay, conditions: Homo sapiens, Neuron; @10 μM; read-out: inhibition rate

Row | SMILES | inhibition at 10 µM
31 | CN1CC[C@H](n2c(Nc3cccnc3)nc3ccccc3c2=O)C1 [Example 77] | 26%
32 | CN1CCC(n2c(Nc3cccnc3)nc3ccccc3c2=O)CC1 [Example 78] | 100%
33 | CN1[C@@H]2CC[C@H]1C[C@@H](n1c(Nc3cccnc3)nc3ccc(F)cc3c1=O)C2 [Example 80] | 49%
34 | CN1CCC[C@H](n2c(Nc3cccnc3)nc3ccc(F)cc3c2=O)C1 [Example 81] | 35%
35 | CN1CC[C@H](n2c(Nc3cccnc3)nc3ccc(F)cc3c2=O)C1 [Example 82] | 17%
36 | CN1CC2(CC(n3c(Nc4cccnc4)nc4ccccc4c3=O)C2)C1 [Example 83] | 96%
37 | C[C@]1(N)CC[C@H](n2c(Nc3cccnc3)nc3ccc(F)cc3c2=O)CC1 [Example 84] | 96%
38 | CN1[C@@H]2CC[C@H]1C[C@H](n1c(Nc3cccnc3)nc3ccc(F)cc3c1=O)C2 [Example 85] | 59%
39 | N#Cc1ccc2nc(Nc3ccccn3)n(-c3ccccc3)c(=O)c2c1 [Example 88] | 95%
40 | Cn1cnc2c(Nc3nc4ccccc4c(=O)n3-c3ccccc3)cccc21 [Example 93] | 53%
41 | O=c1c2ccccc2nc(Nc2cccc3ocnc23)n1-c1ccccc1 [Example 99] | 94%
42 | CN1CCC[C@@H](n2c(Nc3cccnc3)nc3ccc(F)cc3c2=O)C1 [Example 100] | 100%
43 | CN1CCC(n2c(Nc3cccnc3)nc3ccc(F)cc3c2=O)CC1 [Example 101] | 6%
44 | COc1ccc(-n2c(Nc3cccnc3)nc3ccc(C#N)cc3c2=O)c(C)c1 [Example 102, 3-(4-methoxy-2-methylphenyl)-4-oxo-2-(pyridin-3-ylamino)-3,4-dihydroquinazoline-6-carbonitrile] | 92%
45 | O=c1c2cc(F)ccc2nc(Nc2ncccc2F)n1-c1ccccc1 [Example 126] | 80%
46 | O=c1c2cc(F)ccc2nc(Nc2ccncc2)n1-c1ccccc1 [Example 131] | 100%

Same assay, conditions: Homo sapiens, Neuron; @100 μM; read-out: inhibition rate

Row | SMILES | inhibition at 100 µM
47 | Cc1ccc2c(=O)n(-c3ccccc3)c(Nc3cccnc3)nc2c1 [Example 86] | 31%
48 | COc1cccc2nc(Nc3cccnc3)n(-c3ccccc3)c(=O)c12 [Example 92] | 38%
49 | CN1CC[C@@H](n2c(Nc3cccnc3)nc3ccccc3c2=O)C1 [Example 96] | 100%
50 | CN1CC[C@@H](n2c(Nc3cccnc3)nc3ccc(F)cc3c2=O)C1 [Example 97] | 100%
51 | COc1cccc2c(=O)n(-c3ccccc3)c(Nc3cccnc3)nc12 [Example 116] | 59%
52 | O=c1c2c(F)cccc2nc(Nc2cncc(F)c2)n1-c1ccccc1 [Example 117] | 71%
53 | Cc1cccnc1Nc1nc2ccc(F)cc2c(=O)n1-c1ccccc1 [Example 136] | 5%
